Assay results reported in ChEMBL document CHEMBL1671662, “In vitro activities of telavancin and six comparator agents against anaerobic bacterial isolates” (2009).
≈ marks a conversion by molar mass, not a printed value.

Columns and labels:
[1] = tested on: Coprobacillus cateniformis; test: Antibacterial activity against Coprobacillus cateniformis by CLSI M11-A6 agar dilution method; format: functional
[2] = tested on: Peptoniphilus asaccharolyticus; test: Antibacterial activity against Peptoniphilus asaccharolyticus by CLSI M11-A6 agar dilution method; format: functional
Prevotella nigrescens = test: Antibacterial activity against Prevotella nigrescens by CLSI M11-A6 agar dilution method; format: functional
[3] = tested on: Catenibacterium mitsuokai; test: Antibacterial activity against Catenibacterium mitsuokai by CLSI M11-A6 agar dilution method; format: functional
[4] = tested on: Clostridium celerecrescens; test: Antibacterial activity against Clostridium celerecrescens by CLSI M11-A6 agar dilution method; format: functional; settings: Lacrimispora celerecrescens
Parabacteroides merdae = test: Antibacterial activity against Parabacteroides merdae by CLSI M11-A6 agar dilution method; format: functional
Ruminococcus obeum = test: Antibacterial activity against Ruminococcus obeum by CLSI M11-A6 agar dilution method; format: functional; settings: Blautia obeum
Clostridium sp. = test: Antibacterial activity against Clostridium sp. by CLSI M11-A6 agar dilution method; format: functional
[5] = tested on: Bifidobacterium adolescentis; test: Antibacterial activity against Bifidobacterium adolescentis by CLSI M11-A6 agar dilution method; format: functional
Ruminococcus lactaris = test: Antibacterial activity against Ruminococcus lactaris by CLSI M11-A6 agar dilution method; format: functional
Odoribacter splanchnicus = test: Antibacterial activity against Bacteroides splanchnicus by CLSI M11-A6 agar dilution method; format: functional
Fusobacterium varium = test: Antibacterial activity against Fusobacterium varium by CLSI M11-A6 agar dilution method; format: functional
Finegoldia magna = test: Antibacterial activity against Finegoldia magna by CLSI M11-A6 agar dilution method; format: functional
Flavonifractor plautii = test: Antibacterial activity against Clostridium orbiscindens by CLSI M11-A6 agar dilution method; format: functional
[6] = tested on: Streptococcus intermedius; test: Antibacterial activity against Streptococcus intermedius by CLSI M11-A6 agar dilution method; format: functional
Collinsella aerofaciens = test: Antibacterial activity against Colinsella aerofaciens by CLSI M11-A6 agar dilution method; format: functional
Clostridium spiroforme = test: Antibacterial activity against Clostridium spiroforme by CLSI M11-A6 agar dilution method; format: functional; settings: Thomasclavelia spiroformis
Clostridium perfringens = test: Antibacterial activity against Clostridium perfringens by CLSI M11-A6 agar dilution method; format: functional
Clostridium hathewayi = test: Antibacterial activity against Clostridium hathewayi by CLSI M11-A6 agar dilution method; format: functional; settings: Hungatella hathewayi
Coriobacterium = test: Antibacterial activity against […] by CLSI M11-A6 agar dilution method; format: functional
[7] = tested on: Bifidobacterium pseudolongum; test: Antibacterial activity against Bifidobacterium pseudolongum by CLSI M11-A6 agar dilution method; format: functional
Clostridium disporicum = test: Antibacterial activity against Clostridium disporicum by CLSI M11-A6 agar dilution method; format: functional
Streptococcus anginosus = test: Antibacterial activity against Streptococcus anginosus by CLSI M11-A6 agar dilution method; format: functional
Clostridium subterminale = test: Antibacterial activity against Clostridium subterminale by CLSI M11-A6 agar dilution method; format: functional
[8] = tested on: Clostridium sporosphaeroides; test: Antibacterial activity against Clostridium sporosphaeroides by CLSI M11-A6 agar dilution method; format: functional; settings: Faecalispora sporosphaeroides
Ruminococcus torques = test: Antibacterial activity against Ruminococcus torques by CLSI M11-A6 agar dilution method; format: functional; settings: Mediterraneibacter torques
Prevotella intermedia = test: Antibacterial activity against Prevotella P intermedia by CLSI M11-A6 agar dilution method; format: functional
[9] = tested on: Bacteroides thetaiotaomicron; test: Antibacterial activity against Bacteroides thetaiotaomicron by CLSI M11-A6 agar dilution method; format: functional
[10] = Antibacterial activity against Bifidobacterium infantis by CLSI M11-A6 agar dilution method; format: functional, Bifidobacterium longum subsp. infantis; settings: Bifidobacterium longum
Prevotella oris = test: Antibacterial activity against Prevotella oris by CLSI M11-A6 agar dilution method; format: functional; settings: Segatella oris
[11] = tested on: Paeniclostridium sordellii; test: Antibacterial activity against Clostridium sordellii by CLSI M11-A6 agar dilution method; format: functional; settings: Paraclostridium sordellii
Blautia luti = test: Antibacterial activity against Ruminococcus luti by CLSI M11-A6 agar dilution method; format: functional
Prevotella bivia = test: Antibacterial activity against Prevotella bivia by CLSI M11-A6 agar dilution method; format: functional
Prevotella buccae = test: Antibacterial activity against Prevotella buccae by CLSI M11-A6 agar dilution method; format: functional; settings: Segatella buccae
Clostridioides difficile = test: Antibacterial activity against Clostridium difficile by CLSI M11-A6 agar dilution method; format: functional
Anaerococcus tetradius = test: Antibacterial activity against Anaerococcus tetradius by CLSI M11-A6 agar dilution method; format: functional
Bifidobacterium longum = test: Antibacterial activity against Bifidobacterium longum by CLSI M11-A6 agar dilution method; format: functional
[12] = tested on: Clostridium paraputrificum; test: Antibacterial activity against Clostridium paraputrificum by CLSI M11-A6 agar dilution method; format: functional
Prevotella corporis = test: Antibacterial activity against Prevotella corporis by CLSI M11-A6 agar dilution method; format: functional
Ruminococcus albus = test: Antibacterial activity against Ruminococcus albus by CLSI M11-A6 agar dilution method; format: functional; settings: Hominimerdicola alba
Clostridium sporogenes = test: Antibacterial activity against Clostridium sporogenes by CLSI M11-A6 agar dilution method; format: functional
Clostridium butyricum = test: Antibacterial activity against Clostridium butyricum by CLSI M11-A6 agar dilution method; format: functional
Clostridium bartlettii = test: Antibacterial activity against Clostridium bartlettii by CLSI M11-A6 agar dilution method; format: functional; settings: Intestinibacter bartlettii

## CN[C@H](CC(C)C)C(=O)N[C@H]1C(=O)N[C@@H](CC(N)=O)C(=O)N[C@H]2C(=O)N[C@H]3C(=O)N[C@H](C(=O)N[C@H](C(=O)O)c4cc(O)cc(O)c4-c4cc3ccc4O)[C@H](O)c3ccc(c(Cl)c3)Oc3cc2cc(c3O[C@@H]2O[C@H](CO)[C@@H](O)[C@H](O)[C@H]2O[C@H]2C[C@](C)(N)[C@H](O)[C@H](C)O2)Oc2ccc(cc2Cl)[C@H]1O [VANCOMYCIN]
[1]
  MIC50: 0.5 µg/mL (≈ 0.345 µM)
  MIC90: 4 µg/mL (≈ 2.76 µM)
[2]
  MIC50: 0.5 µg/mL (≈ 0.345 µM)
  MIC90: 1 µg/mL (≈ 0.69 µM)
Prevotella nigrescens
  MIC50: 32 µg/mL (≈ 22.1 µM)
  MIC90: > 128 µg/mL
[3]
  MIC50: 0.5 µg/mL (≈ 0.345 µM)
  MIC90: 4 µg/mL (≈ 2.76 µM)
[4]
  MIC50: 1 µg/mL (≈ 0.69 µM)
  MIC90: 4 µg/mL (≈ 2.76 µM)
Parabacteroides merdae
  MIC50: 128 µg/mL (≈ 88.3 µM)
  MIC90: 128 µg/mL (≈ 88.3 µM)
Ruminococcus obeum
  MIC50: 0.5 µg/mL (≈ 0.345 µM)
  MIC90: 0.5 µg/mL (≈ 0.345 µM)
Clostridium sp.
  MIC50: 1 µg/mL (≈ 0.69 µM)
  MIC90: 4 µg/mL (≈ 2.76 µM)
[5]
  MIC50: 0.5 µg/mL (≈ 0.345 µM)
  MIC90: 4 µg/mL (≈ 2.76 µM)
Ruminococcus lactaris
  MIC50: 0.5 µg/mL (≈ 0.345 µM)
  MIC90: 1 µg/mL (≈ 0.69 µM)
Odoribacter splanchnicus
  MIC50: 128 µg/mL (≈ 88.3 µM)
  MIC90: > 128 µg/mL
Fusobacterium varium
  MIC: > 128 µg/mL
  MIC50: > 128 µg/mL
  MIC90: > 128 µg/mL
Finegoldia magna
  MIC50: 0.5 µg/mL (≈ 0.345 µM)
  MIC90: 1 µg/mL (≈ 0.69 µM)
Flavonifractor plautii
  MIC50: 1 µg/mL (≈ 0.69 µM)
  MIC90: 4 µg/mL (≈ 2.76 µM)
[6]
  MIC50: 2 µg/mL (≈ 1.38 µM)
  MIC90: 2 µg/mL (≈ 1.38 µM)
Collinsella aerofaciens
  MIC50: 0.5 µg/mL (≈ 0.345 µM)
  MIC90: 4 µg/mL (≈ 2.76 µM)
Clostridium spiroforme
  MIC50: 1 µg/mL (≈ 0.69 µM)
  MIC90: 4 µg/mL (≈ 2.76 µM)
Clostridium perfringens
  MIC: 0.5 µg/mL (≈ 0.345 µM)
  MIC50: 0.5 µg/mL (≈ 0.345 µM)
  MIC90: 1 µg/mL (≈ 0.69 µM)
Clostridium hathewayi
  MIC50: 1 µg/mL (≈ 0.69 µM)
  MIC90: 1 µg/mL (≈ 0.69 µM)
Coriobacterium
  MIC50: 0.5 µg/mL (≈ 0.345 µM)
  MIC90: 4 µg/mL (≈ 2.76 µM)
[7]
  MIC50: 0.5 µg/mL (≈ 0.345 µM)
  MIC90: 4 µg/mL (≈ 2.76 µM)
Clostridium disporicum
  MIC50: 1 µg/mL (≈ 0.69 µM)
  MIC90: 4 µg/mL (≈ 2.76 µM)
Streptococcus anginosus
  MIC50: 2 µg/mL (≈ 1.38 µM)
  MIC90: 2 µg/mL (≈ 1.38 µM)
Clostridium subterminale
  MIC: 0.5 µg/mL (≈ 0.345 µM)
  MIC50: 0.5 µg/mL (≈ 0.345 µM)
  MIC90: 1 µg/mL (≈ 0.69 µM)
[8]
  MIC50: 1 µg/mL (≈ 0.69 µM)
  MIC90: 4 µg/mL (≈ 2.76 µM)
Ruminococcus torques
  MIC50: 0.5 µg/mL (≈ 0.345 µM)
  MIC90: 1 µg/mL (≈ 0.69 µM)
Prevotella intermedia
  MIC50: 32 µg/mL (≈ 22.1 µM)
  MIC90: > 128 µg/mL
[9]
  MIC50: > 128 µg/mL
  MIC90: > 128 µg/mL
[10]
  MIC50: 0.5 µg/mL (≈ 0.345 µM)
  MIC90: 4 µg/mL (≈ 2.76 µM)
Prevotella oris
  MIC50: 32 µg/mL (≈ 22.1 µM)
  MIC90: > 128 µg/mL
[11]
  MIC50: 1 µg/mL (≈ 0.69 µM)
  MIC90: 4 µg/mL (≈ 2.76 µM)
Blautia luti
  MIC50: 0.5 µg/mL (≈ 0.345 µM)
  MIC90: 1 µg/mL (≈ 0.69 µM)
Prevotella bivia
  MIC50: 32 µg/mL (≈ 22.1 µM)
  MIC90: > 128 µg/mL
Prevotella buccae
  MIC50: 32 µg/mL (≈ 22.1 µM)
  MIC90: > 128 µg/mL
Clostridioides difficile
  MIC50: 1 µg/mL (≈ 0.69 µM)
  MIC90: 2 µg/mL (≈ 1.38 µM)
Anaerococcus tetradius
  MIC50: 0.5 µg/mL (≈ 0.345 µM)
  MIC90: 1 µg/mL (≈ 0.69 µM)
Bifidobacterium longum
  MIC50: 0.5 µg/mL (≈ 0.345 µM)
  MIC90: 4 µg/mL (≈ 2.76 µM)
[12]
  MIC50: 1 µg/mL (≈ 0.69 µM)
  MIC90: 4 µg/mL (≈ 2.76 µM)
Prevotella corporis
  MIC50: 32 µg/mL (≈ 22.1 µM)
  MIC90: > 128 µg/mL
Ruminococcus albus
  MIC50: 0.5 µg/mL (≈ 0.345 µM)
  MIC90: 1 µg/mL (≈ 0.69 µM)
Clostridium sporogenes
  MIC50: 1 µg/mL (≈ 0.69 µM)
  MIC90: 4 µg/mL (≈ 2.76 µM)
Clostridium butyricum
  MIC50: 1 µg/mL (≈ 0.69 µM)
  MIC90: 4 µg/mL (≈ 2.76 µM)
Clostridium bartlettii
  MIC50: 1 µg/mL (≈ 0.69 µM)
  MIC90: 4 µg/mL (≈ 2.76 µM)
